± gives the expanded uncertainty stated by the source.
Settings: Gas, double Helmholtz acoustic resonator

F[Si](F)(F)F [silicon tetrafluoride]
Settings	kinematic viscosity [m2/s]	speed of sound [m/s]
215 K, 198.15 kPa	1.06e-06 ± 8e-08	136.99 ± 0.1
215 K, 283.66 kPa	7.32e-07 ± 1.9e-08	135.34 ± 0.045
215 K, 378.5 kPa	5.24e-07 ± 3e-08	133.42 ± 0.028
215 K, 461.43 kPa	4.37e-07 ± 2.4e-08	131.7 ± 0.028
215 K, 551.52 kPa	3.6e-07 ± 5.8e-09	129.72 ± 0.028
215 K, 649.39 kPa	3.03e-07 ± 3.6e-09	127.46 ± 0.027
215 K, 746.64 kPa	2.59e-07 ± 3.1e-09	125.06 ± 0.027
230 K, 271.49 kPa	8.88e-07 ± 6.4e-08	141.02 ± 0.033
230 K, 424.62 kPa	5.63e-07 ± 4.4e-08	138.59 ± 0.033
230 K, 578.31 kPa	3.98e-07 ± 8.2e-09	136.01 ± 0.028
230 K, 742.99 kPa	2.84e-07 ± 1.4e-08	133.07 ± 0.043
230 K, 897.83 kPa	2.5e-07 ± 6e-09	130.19 ± 0.028
230 K, 1088.3 kPa	2.9e-07	126.35 ± 0.16
230 K, 1251 kPa	1.76e-07 ± 8.4e-09	122.68 ± 0.028
245 K, 248.32 kPa	1.09e-06 ± 9.6e-08	146.4 ± 0.096
245 K, 393.67 kPa	6.6e-07 ± 1.8e-08	144.55 ± 0.033
245 K, 542.46 kPa	4.92e-07 ± 2.4e-08	142.59 ± 0.033
245 K, 703.75 kPa	3.7e-07 ± 1.7e-08	140.39 ± 0.029
245 K, 873.41 kPa	2.95e-07 ± 3.5e-09	138 ± 0.029
245 K, 1034.5 kPa	2.46e-07 ± 2.9e-09	135.63 ± 0.029
245 K, 1220 kPa	2.08e-07 ± 5.4e-09	132.78 ± 0.029
245 K, 1434.3 kPa	1.74e-07 ± 4e-09	129.26 ± 0.028
245 K, 1599.8 kPa	1.55e-07 ± 3.4e-09	126.37 ± 0.028
245 K, 1777.8 kPa	1.4e-07 ± 2.2e-09	123.04 ± 0.039
245 K, 1958.5 kPa	1.25e-07 ± 1.6e-09	119.34 ± 0.038
260 K, 206.14 kPa	1.34e-06 ± 1.4e-07	151.46 ± 0.14
260 K, 410.06 kPa	7.49e-07 ± 5.2e-08	149.46 ± 0.048
260 K, 617.98 kPa	4.82e-07 ± 2.6e-08	147.22 ± 0.03
260 K, 830.76 kPa	3.54e-07 ± 4.3e-09	144.88 ± 0.03
260 K, 1047.1 kPa	2.74e-07 ± 1.3e-08	142.41 ± 0.03
260 K, 1252 kPa	2.3e-07 ± 6.4e-09	140.01 ± 0.03
260 K, 1498.2 kPa	1.91e-07 ± 2.8e-09	137.01 ± 0.03
260 K, 1794.3 kPa	1.58e-07 ± 2.6e-09	133.23 ± 0.032
260 K, 2026.6 kPa	1.39e-07 ± 8.6e-09	130.08 ± 0.081
260 K, 2282.2 kPa	1.25e-07 ± 4e-09	126.45 ± 0.029
260 K, 2541.7 kPa	1.1e-07 ± 5e-09	122.51 ± 0.043
274.58 K, 524.86 kPa	6.36e-07 ± 4.4e-08	153.14 ± 0.07
274.58 K, 642.96 kPa	5.09e-07 ± 5.4e-08	152.03 ± 0.031
274.58 K, 744.26 kPa	4.24e-07 ± 1.3e-08	151.15 ± 0.031
274.58 K, 845.26 kPa	3.88e-07 ± 1.2e-08	150.26 ± 0.031
274.58 K, 947.16 kPa	3.48e-07 ± 4.8e-09	149.34 ± 0.031
274.58 K, 1048.3 kPa	3.11e-07 ± 6.2e-09	148.41 ± 0.031
274.58 K, 1150.3 kPa	2.86e-07 ± 3.4e-09	147.47 ± 0.031
274.58 K, 1252.2 kPa	2.59e-07 ± 6.8e-09	146.53 ± 0.03
274.58 K, 1353.8 kPa	2.42e-07 ± 1.5e-08	145.57 ± 0.035
274.58 K, 1454.6 kPa	2.28e-07 ± 7.4e-09	144.62 ± 0.03
274.58 K, 1556 kPa	2.09e-07 ± 6e-09	143.64 ± 0.03
274.58 K, 1657.9 kPa	2.01e-07 ± 9.6e-09	142.67 ± 0.03
274.58 K, 1764.4 kPa	1.82e-07 ± 7.6e-09	141.62 ± 0.03
274.58 K, 1878.1 kPa	1.7e-07 ± 9.6e-09	140.5 ± 0.03
274.58 K, 1998.5 kPa	1.64e-07 ± 7.6e-09	139.34 ± 0.029
274.58 K, 2141.9 kPa	1.52e-07 ± 4.8e-09	137.92 ± 0.03
274.58 K, 2244.2 kPa	1.42e-07 ± 2.2e-09	136.85 ± 0.03
274.58 K, 2354.1 kPa	1.36e-07 ± 2e-09	135.74 ± 0.029
274.58 K, 2474 kPa	1.31e-07 ± 2.6e-09	134.5 ± 0.03
274.58 K, 2776.6 kPa	1.15e-07 ± 1.8e-09	131.33 ± 0.029
274.58 K, 2951.3 kPa	1.08e-07 ± 1.3e-09	129.47 ± 0.032
300 K, 386.04 kPa	1.14e-06	161.89 ± 1.1
300 K, 581.57 kPa	7.42e-07 ± 5.2e-08	160.87 ± 0.2
300 K, 775.29 kPa	5.2e-07 ± 6.6e-08	159.49 ± 0.22
300 K, 975.51 kPa	4.04e-07 ± 4.6e-08	158.17 ± 0.056
300 K, 1173.9 kPa	3.25e-07 ± 1.8e-08	156.88 ± 0.032
300 K, 1443.4 kPa	2.69e-07 ± 2.2e-08	155.17 ± 0.032
300 K, 1648.7 kPa	2.37e-07 ± 1.1e-08	153.86 ± 0.032
300 K, 1872.1 kPa	2.11e-07 ± 1.2e-08	152.44 ± 0.032
300 K, 2157.9 kPa	1.71e-07 ± 4.6e-08	150.6 ± 0.094
300 K, 2526.1 kPa	1.53e-07 ± 3.6e-09	148.3 ± 0.032
324.96 K, 582.54 kPa	8.84e-07 ± 1.7e-07	168.12 ± 0.44
324.96 K, 731.36 kPa	6e-07	167.21 ± 0.16
324.96 K, 1070.8 kPa	4.22e-07 ± 3.2e-08	165.71 ± 0.034
324.96 K, 1257.4 kPa	3.6e-07 ± 5e-08	164.87 ± 0.046
324.96 K, 1487.6 kPa	3.1e-07 ± 4e-09	163.84 ± 0.034
324.96 K, 1769 kPa	2.59e-07 ± 3.1e-09	162.6 ± 0.033
324.96 K, 1936.2 kPa	2.42e-07 ± 7.2e-09	161.88 ± 0.033
324.96 K, 2114.4 kPa	2.11e-07 ± 9e-09	161.1 ± 0.033
324.96 K, 2322.2 kPa	1.99e-07 ± 8.2e-09	160.23 ± 0.033
324.96 K, 2541 kPa	1.84e-07 ± 5.6e-09	159.34 ± 0.033

FS(F)(F)(F)(F)F [sulfur hexafluoride]
273.16 K
Settings	kinematic viscosity [m2/s]	speed of sound [m/s]
290.38 kPa	7.19e-07 ± 8.6e-09	126.14 ± 0.029
386.66 kPa	5.33e-07 ± 6.4e-09	124.46 ± 0.029
492.4 kPa	4.1e-07 ± 4.9e-09	122.54 ± 0.028
602.05 kPa	3.28e-07 ± 3.9e-09	120.45 ± 0.028
712.29 kPa	2.72e-07 ± 3.3e-09	118.25 ± 0.027
808.73 kPa	2.35e-07 ± 2.8e-09	116.21 ± 0.027
903.28 kPa	2.24e-07	114.14 ± 0.16
1000.5 kPa	1.81e-07 ± 4.4e-09	111.81 ± 0.026

— the NIST ThermoML archive (doi:10.1016/j.jct.2007.07.002)
